Experiments:
[1] = test system: FLO11 promoter (PFLO11) fused to the neo gene; assay: PFLO11-neo reporter selection: G418 resistance on YPD; format: cell-based, S. cerevisiae; settings: strain MY1560, YPD + 100 μg/ml G418
Excerpt: To identify peptides that promote invasion we used S. cerevisiae strain MY1560 (MATα/MATαΔ::LEU2 ura3Δ::PFLO11-neo/ura3Δ0 leu2Δ0/leu2Δ0 trp1Δ0::hisG/trp1Δ10::hisG his3Δ0::hisG/his3Δ0::hisG). This strain contains the FLO11 promoter (PFLO11) fused to the neo gene conferring resistance to the drug G418. FLO11 is a cell-surface flocculin required for pseudohyphal and invasive growth in S. cerevisiae. […] Thus, altered FLO11 expression can be used as an indicator of an altered invasion phenotype.
It was empirically determined that the wild type MY1560 strain (untransformed or transformed with a plasmid representing the peptide library staph nuclease scaffold) is unable to grow on YPD media supplemented with 100 μg/ml G418. In contrast, hyperinvasive strains are resistant to this concentration of the drug and form colonies on G418-supplemented YPD media. Thus, transformation of this strain with an invasion-promoting peptide should render the cells capable of growing on G418-supplemented YPD media. […]

FLO11 = assay: PFLO11-lacZ reporter, β-galactosidase activity; format: cell-based, S. cerevisiae; settings: Table 1, strain MY1405 with plasmid MB1339, control pTCN23 = 1.0
Excerpt: Transformation of S. cerevisiae was by lithium acetate/single-stranded carrier DNA/polyethylene glycol (LiAc/ss-DNA/PEG) protocol (see, e.g., Gietz and Woods (1998), in: Methods in Microbiology, Chapter 26, Brown and Tuite, eds., Academic Press, New York; Agatep et al. (1998), TTO 1:P01525, Technical Tips Online at http://tto.trends.com) with a library of plasmids expressing unique random peptide sequences in the context of a Staphylococcal nuclease “scaffold” to generate more than 20 million independent Ura^+ transformants (Norman et al. (1999), Science 285:591-595). The transformants were replica-plated to YPD plates supplemented with […] G418 to select for clones with increased expression of the invasion-related reporter (FLO11) and consequent G418 resistance. Plates were incubated at 30° C. for 2-4 days and resistant clones were collected in pools (50 pools total) by scraping the colonies off each plate in a small volume of water. Plasmids were isolated as a pool (Hoffman and Winston (1986), Gene 57:267), transformed into E. coli, and re-transformed as a pool into the original selection strain, MY1560. Ura^+ transformants were again replica plated to YPD+100 μg/ml G418 plates. […] Positive clones were further tested for plasmid dependence by (1) examining the correlation between spontaneous loss of the peptide-expressing plasmid and loss of G418 resistance, and (2) recovering the plasmid from the yeast, retransforming into the original selection strain, and characterizing the G418 resistance. […] The remaining candidate peptides were characterized for their effects on expression of PFLO11-lacZ reporter constructs. This was performed by co-transforming the candidate plasmid into S. cerevisiae strain MY1405 (MATα ura3Δ0 his3Δ0::hisG trp1Δ0::hisG) which contains plasmid MB1339 [PFLO11-lacZ TRP1 […]] and measuring β-galactosidase activity.

GSNGCVSVSSSVTSFM [5-49, 3, invasion-promoting random peptide expressed in loop of Staphylococcal nuclease scaffold]
PFLO11-neo Mediated G418^R [1]: +w | FL011-lacZ (relative expression) (FLO11): 2.5
